{"source": "patent US20080306257A1", "about": "“Syntheses and Preparations of Narwedine and Related Novel Compounds” (priority 2005, published 2008)", "format_in_all_cases": "physicochemical", "key": {"[1]": {"experiment": "solubility of (−)-galanthamine hydrobromide in water", "procedure": "(§1) It has been further observed that (−)-galanthamine hydrobromide can be further purified with high yield and without degradation of the material by crystallization in water in the presence of ammonium bromide. Lower yields are obtained using water in the absence of ammonium bromide due to the high solubility of (−)-galanthamine hydrobromide in water (about 50 mg/mL at room temperature and 300 mg/mL at reflux temperature)."}, "[2]": {"experiment": "epimerization of (−)-galanthamine under acidic conditions", "conditions": "under acidic conditions (presence of hydrobromic acid)", "procedure": "as §1"}, "[3]": {"experiment": "racemization in THF solution", "conditions": "THF solution at approximately 0° C.", "procedure": "Advantage of this aspect of invention include, among others, the reduction reaction of (−)-narwedine-BF3 complex can be carried out at approximately 0° C."}}, "data": [{"compound": "Br.COc1ccc2c3c1O[C@H]1C[C@@H](O)C=C[C@@]31CCN(C)C2", "note": "[(−)-galanthamine hydrobromide]", "values": [{"measurement": "solubility in water", "setting": "[1]; at reflux temperature", "value": "~300", "unit": "mg/mL"}, {"measurement": "solubility in water", "setting": "[1]; at room temperature", "value": "about 50 mg/mL"}]}, {"compound": "COc1ccc2c3c1O[C@H]1C[C@@H](O)C=C[C@@]31CCN(C)C2", "note": "[(−)-galanthamine, (4aS,6R,8aS)-4a,5,9,10,11,12-hexahydro-3-methoxy-11-methyl-6H-benzofuro[3a,3,2-ef][2]benzazepin-6-ol]", "values": [{"measurement": "epimerization to (−)-epigalanthamine (stability)", "setting": "[2]", "value": "rapidly epimerized"}]}, {"compound": "(−)-narwedine-BF3 complex [(−)-narwedine.BF3 complex]", "values": [{"measurement": "racemization (configurational stability)", "setting": "[3]", "value": "racemizes very slowly"}]}]}
